Patent US20260209249A1, “NOVEL TRICYCLIC COMPOUND AS KRAS G12D INHIBITOR, AND USE THEREOF” (SK Biopharmaceuticals Co., priority 2022, published 2026)

Columns and labels:
[1] = target: T1, GppNHp-KRAS G12D mutant protein (Homo sapiens, UniProt P01116, G12D); assay: Differential scanning fluorimetry (DSF) binding affinity to GppNHp-KRAS G12D mutant protein; conditions: DSF thermal shift, 10 μM compound, 4 μg KRAS protein, 50 mM HEPES (pH 7.5)
T1 construct: purchased Daegu Gyeongbuk Medical Innovation Foundation (DGMIF), made to order
In short: (§1)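 Thermal shift ΔTm was measured at 10 μM compound over a 25–99 °C ramp (0.05 °C/s), read at 580 nm ex/623 nm em with SYPRO Orange (2×). The protein (4 μg) was preincubated with compound for 30 min at room temperature, in 50 mM HEPES pH 7.5 for GppNHp-KRAS G12D or in kit buffer for GDP-KRAS G12D.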

[2] = system: ERK phosphorylation (pERK) induced by KRAS G12D mutation; assay: Inhibitory activity against ERK phosphorylation (pERK) induced by KRAS G12D mutation, immunofluorescence assay in AsPC-1 cells; format: cell-based; conditions: Homo sapiens, ASPC1, 3 h drug treatment, pERK (Thr202/Tyr204) signal normalized to DAPI
Description: Test Example 2: Measurement of Inhibitory Activity Against ERK Phosphorylation (pERK) Induced by KRAS G12D Mutation (Immunofluorescence Assay)
Immunofluorescence is a method used to detect specific substances within cells or tissues through antigen-antibody interactions, and allows for the identification of the presence or absence of specific proteins by using antibodies labeled with various fluorescent dyes. After a primary antibody that recognizes a specific protein selectively binds to the epitope, a fluorescent antibody (secondary antibody) is bound to the primary antibody.
It was confirmed as follows that the compounds according to an embodiment of the present application inhibit phosphorylation of extracellular signal-regulated kinases (Phospho-ERK, pERK) induced by KRAS G12D mutation.
AsPC-1 cells were seeded at a density of 10,000 cells/well in RPMI-1640 medium containing 10% FBS and 1% Penicillin-Streptomycin in 384-well plates (Perkinelmer, #6057300) and allowed to attach for 16 h. After the cells attached to the plate, the cells were treated with drugs at a maximum concentration of 10 μM with a 3-fold serial dilution. After 3 h of drug treatment, the medium was removed and the cells were treated with 50 μL of 4% formaldehyde (Biosesang, #PC2031-050-00) for 20 min and washed three times with 50 μL of phosphate buffered saline (PBS).
50 μL of PBS containing 0.3% Triton X-100 (Sigma, #T8787-250 mL) was added and reacted for 20 minutes to allow antibody penetration into cells, and then the plate was washed three times with 50 μL of PBS. To block nonspecific binding of antibodies to the plate, 50 μL of PBS containing 2% BSA (sigma, #A7906-500G) and 0.01% Tween-20 (Sigma, #P1379-500 mL) (hereinafter referred to as PBS-T) was added, and reacted at room temperature for 2 hours.
To detect pERK, the primary antibody (cell signaling, #9101) was diluted 1:500 in PBS-T containing 2% BSA, 50 μL was added, and the plate was stored in a refrigerator at 4° C. for 16 hours to react, followed by washing three times with 50 μL of PBS-T. To visualize the primary antibody, the secondary antibody, i.e., anti-rabbit-Alexa Fluor 488 (ThermoFisher, #A11008), was diluted 1:1000 in PBS-T containing 2% BSA, 50 μL was added, and after reaction at room temperature for 1 hour, the plate was washed three times with 50 μL of PBS-T. Next, to visualize the nuclei of cells, DAPI (Thermofisher, #62248, 1 mg/mL) was diluted 1:1000 in PBS-T, 50 μL each was added, reacted at room temperature for 10 minutes, and washed three times with 50 μL of PBS-T. 50 μL of PBS-T was added to each well, and the plate was read for fluorescence value using HCS equipment (MOLECULAR DEVICES/ImageXpress Micro).
Data analysis was performed by normalizing the pERK (Thr202/Tyr204) signal to the DAPI signal and calculating the percentage relative to the DMSO as a control. The IC50 value was determined by fitting a four-parameter dose-response curve using the GraphPad Prism software (version 8.4.3), and interpolating the concentration at which 50% inhibition occurred. The results of calculating the inhibitory efficacy of the compounds according to one embodiment of the present application against KRAS G12D mutation-induced pERK activity are shown in Table 3.

[3] = target: T2, GDP-KRAS G12D mutant protein (Homo sapiens, UniProt P01116, G12D); assay: Differential scanning fluorimetry (DSF) binding affinity to GDP-KRAS G12D mutant protein; conditions: DSF thermal shift, 10 μM compound, 4 μg KRAS protein
T2 construct: purchased Daegu Gyeongbuk Medical Innovation Foundation (DGMIF), made to order
In short: as §1

Structure (SMILES) | GppNHp-KRAS G12D (ΔTmD, ° C.) [1] [°C] | IC50 [2] [nM] | GDP-KRAS G12D (ΔTmD, ° C.) [3] [°C]
Oc1cc(-c2cc3nc(OC[C@@]45CCCN4C[C@H](F)C5)nc(N4C[C@H]5CC[C@@H](C4)N5)c3n3ccnc23)c2c(F)c(F)ccc2c1 [Example 3, 4-(1-((1 R,5S)-3,8-diazabicyclo[3.2.1]octan-3-yl)-3-(((2R,7aS)-2-fluorotetrahydro-1H-pyrrolizin-7a(5H)-yl)methoxy)imidazo[1′,2′:1,6]pyrido[3,2-d]pyrimidin-6-yl)-5,6-difluoronaphthalen-2-ol] | 1.90 | 1420 | 6.05
Cc1cc2c(o1)c(-c1ccc(F)c3sc(N)c(C#N)c13)c(F)c1nc(OC[C@@]34CCCN3C/C(=C\F)C4)nc(N3C[C@H]4CC[C@@H](C3)N4)c12 [Example 63, 4-(1-((1R,5S)-3,8-diazabicyclo[3.2.1]octan-3-yl)-5-fluoro-3-(((S,Z)-2-(fluoromethylene)tetrahydro-1H-pyrrolizin-7a(5H)-yl)methoxy)-8-methylfuro[3,2-f]quinazolin-6-yl)-2-amino-7-fluorobenzo[b]thiophene-3-carbonitrile] | 9.02 | 532 | 8.72
C#Cc1c(F)ccc2cc(O)cc(-c3cc4nc(OC[C@]56CCCN5CC(=C)C6)nc(N5[C@@H]6CC[C@H]5CNC6)c4n4ccnc34)c12 [Example 21, 4-(1-((1R,5S)-3,8-diazabicyclo[3.2.1]octan-8-yl)-3-(((R)-2-methylenetetrahydro-1H-pyrrolizin-7a(5H)-yl)methoxy)imidazo[1′,2′:1,6]pyrido[3,2-d]pyrimidin-6-yl)-5-ethynyl-6-fluoronaphthalen-2-ol] | 4.72 | 196 | 8.13
Cc1cc2c(o1)c(-c1cc(O)cc3ccccc13)c(F)c1nc(OC[C@@]34CCCN3C[C@H](F)C4)nc(N3C[C@H]4CC[C@@H](C3)N4)c12 [Example 43, 4-(1-((1R,5S)-3,8-diazabicyclo[3.2.1]octan-3-yl)-5-fluoro-3-(((2R,7aS)-2-fluorotetrahydro-1H-pyrrolizin-7a(5H)-yl)methoxy)-8-methylfuro[3,2-f]quinazolin-6-yl)naphthalen-2-ol] | 4.27 | 953 | 9.30
C#Cc1c(F)ccc2cc(O)cc(-c3cc4nc(OCC5(CN6CCCC6)CC5)nc(N5[C@@H]6CC[C@H]5CNC6)c4n4ccnc34)c12 [Example 17, 4-(1-((1R,5S)-3,8-diazabicyclo[3.2.1]octan-8-yl)-3-((1-(pyrrolidin-1-ylmethyl)cyclopropyl)methoxy)imidazo[1′,2′:1,6]pyrido[3,2-d]pyrimidin-6-yl)-5-ethynyl-6-fluoronaphthalen-2-ol] | 4.71 | 1170 | 9.45
C#Cc1c(F)ccc2cc(N)cc(-c3cc4nc(OC[C@@]56CCCN5C[C@H](F)C6)nc(N5C[C@H]6CC[C@@H](C5)N6)c4c4cn(C)nc34)c12 [Example 71, 4-(9-((1R,5S)-3,8-diazabicyclo[3.2.1]octan-3-yl)-7-(((2R,7aS)-2-fluorotetrahydro-1H-pyrrolizin-7a(5H)-yl)methoxy)-2-methyl-2H-pyrazolo[4,3-f]quinazolin-4-yl)-5-ethynyl-6-fluoronaphthalen-2-amine] | 4.88 | 512 | 8.14
C#Cc1c(F)ccc2cc(O)cc(-c3c(F)c4nc(OC[C@@]56CCCN5C/C(=C\F)C6)nc(N5C[C@H]6CC[C@@H](C5)N6)c4c4cc(C)oc34)c12 [Example 64, 4-(1-((1R,5S)-3,8-diazabicyclo[3.2.1]octan-3-yl)-5-fluoro-3-(((S,Z)-2-(fluoromethylene)tetrahydro-1H-pyrrolizin-7a(5H)-yl)methoxy)-8-methylfuro[3,2-n]quinazolin-6-yl)-5-ethynyl-6-fluoronaphthalen-2-ol] | 11.39 | 62 | 15.24
Cc1cc2c(o1)c(-c1cc(O)cc3ccccc13)c(F)c1nc(OC[C@@]34CCCN3C[C@H](F)C4)nc(NCC3(N(C)C)CCC3)c12 [Example 47, 4-(1-(((1-(dimethylamino)cyclobutyl)methyl)amino)-5-fluoro-3-(((2R,7aS)-2-fluorotetrahydro-1H-pyrrolizin-7a(5H)-yl)methoxy)-8-methylfuro[3,2-n]quinazolin-6-yl)naphthalen-2-ol] |  | 7980 | 
C#Cc1c(F)ccc2cc(O)cc(-c3cc4nc(OC[C@@]56CCCN5C[C@H](F)C6)nc(NCC5(N(C)C)CCC5)c4n4ccnc34)c12 [Example 6, 4-(1-(((1-(dimethylamino)cyclobutyl)methyl)amino)-3-(((2R,7aS)-2-fluorotetrahydro-1H-pyrrolizin-7a(5H)-yl)methoxy)imidazo[1′,2′:1,6]pyrido[3,2-d]pyrimidin-6-yl)-5-ethynyl-6-fluoronaphthalen-2-ol] |  | 2320 | 
C#Cc1c(F)ccc2cc(N)cc(-c3cc4nc(OC[C@@]56CCCN5C[C@H](F)C6)nc(N5C[C@H]6CC[C@@H](C5)N6)c4n4ccnc34)c12 [Example 24, 4-(1-((1R,5S)-3,8-diazabicyclo[3.2.1]octan-3-yl)-3-(((2R,7aS)-2-fluorotetrahydro-1H-pyrrolizin-7a(5H)-yl)methoxy)imidazo[1′,2′:1,6]pyrido[3,2-d]pyrimidin-6-yl)-5-ethynyl-6-fluoronaphthalen-2-amine] | 2.07 |  | 5.48
C#Cc1c(F)ccc2cc(O)cc(-c3c(F)c4nc(OC[C@@]56CCCN5CC(=C(F)F)C6)nc(N5CC6CCC(C5)N6)c4c4cn(C)nc34)c12 [Example 92, 4-(9-((1R,5S)-3,8-diazabicyclo[3.2.1]octan-3-yl)-7-(((S)-2-(difluoromethylene)tetrahydro-1H-pyrrolizin-7a(5H)-yl)methoxy)-5-fluoro-2-methyl-2H-pyrazolo[4,3-]quinazolin-4-yl)-5-ethynyl-6-fluoronaphthalen-2-ol] | 13.02 |  | 17.61
C#Cc1c(F)ccc2cc(O)cc(-c3cc4nc(OCC5(CN6CC[C@@H](F)C6)CCC5)nc(N5C[C@H]6CC[C@@H](C5)N6)c4n4ccnc34)c12 [Example 40, 4-(1-((1R,5S)-3,8-diazabicyclo[3.2.1]octan-3-yl)-3-((1-(((R)-3-fluoropyrrolidin-1-yl)methyl)cyclobutyl)methoxy)imidazo[1′,2′:1,6]pyrido[3,2-d]pyrimidin-6-yl)-5-ethynyl-6-fluoronaphthalen-2-ol] | 0.61 |  | 5.95
C#Cc1c(F)ccc2cccc(-c3cc4nc(OC[C@@]56CCCN5C/C(=C\F)C6)nc(N5C[C@H]6CC[C@@H](C5)N6)c4c4cn(C)nc34)c12 [Example 78, 9-((1 R,5S)-3,8-diazabicyclo[3.2.1]octan-3-yl)-4-(8-ethynyl-7-fluoronaphthalen-1-yl)-7-(((S,Z)-2-(fluoromethylene)tetrahydro-1H-pyrrolizin-7a(5H)-yl)methoxy)-2-methyl-2H-pyrazolo[4,3-n]quinazoline] | 1.17 |  | 5.46
